Measured values: PubChem BioAssay (NCI)
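Growth conditions: 96-well plates. Treatment: test compound, 48 hours, 5 concentrations. Analysis: linear interpolation between bracketing concentrations; unreached endpoints set to highest concentration. At the TGI there is no net growth.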

What was measured:
Assay in all cases: inhibition of tumour cell growth, NCI panel, 48 h
HL-60(TB) leukemia = tested on: HL-60(TB) leukemia
M14 melanoma = tested on: M14 melanoma
KM12 colon = tested on: KM12 colon
UACC-257 melanoma = tested on: UACC-257 melanoma
SK-MEL-5 melanoma = tested on: SK-MEL-5 melanoma
OVCAR-3 ovarian = tested on: OVCAR-3 ovarian
LXFL 529 NSCLC = tested on: LXFL 529 NSCLC
HCT-15 colon = tested on: HCT-15 colon
DMS 114 small cell lung = tested on: DMS 114 small cell lung
DLD-1 colon = tested on: DLD-1 colon
CCRF-CEM leukemia = tested on: CCRF-CEM leukemia
OVCAR-4 ovarian = tested on: OVCAR-4 ovarian
M19-MEL melanoma = tested on: M19-MEL melanoma
A498 renal = tested on: A498 renal
NCI-H460 lung = tested on: NCI-H460 lung
SK-MEL-2 melanoma = tested on: SK-MEL-2 melanoma
RXF 393 renal = tested on: RXF 393 renal
SN12C renal = tested on: SN12C renal
RPMI-8226 leukemia = tested on: RPMI-8226 leukemia
A549 NSCLC = tested on: A549 NSCLC
HCT-116 colon = tested on: HCT-116 colon
NCI-H23 lung = tested on: NCI-H23 lung
UO-31 renal = tested on: UO-31 renal
HOP-18 NSCLC = tested on: HOP-18 NSCLC
SNB-75 CNS = tested on: SNB-75 CNS
K-562 leukemia = tested on: K-562 leukemia
SNB-78 CNS = tested on: SNB-78 CNS
LOX IMVI melanoma = tested on: LOX IMVI melanoma
ACHN renal = tested on: ACHN renal
SK-MEL-28 melanoma = tested on: SK-MEL-28 melanoma
OVCAR-8 ovarian = tested on: OVCAR-8 ovarian
SK-OV-3 ovarian = tested on: SK-OV-3 ovarian
HOP-92 NSCLC = tested on: HOP-92 NSCLC
SW-620 colon = tested on: SW-620 colon
NCI-H522 lung = tested on: NCI-H522 lung
OVCAR-5 ovarian = tested on: OVCAR-5 ovarian
SF-268 CNS = tested on: SF-268 CNS
IGROV1 ovarian = tested on: IGROV1 ovarian
SR leukemia = tested on: SR leukemia
MOLT-4 leukemia = tested on: MOLT-4 leukemia
HCC-2998 colon = tested on: HCC-2998 colon
SF-539 CNS = tested on: SF-539 CNS
XF 498 CNS = tested on: XF 498 CNS
CAKI-1 renal = tested on: CAKI-1 renal
HT29 colon = tested on: HT29 colon
UACC-62 melanoma = tested on: UACC-62 melanoma
COLO 205 colon = tested on: COLO 205 colon
HOP-62 NSCLC = tested on: HOP-62 NSCLC
DMS 273 small cell lung = tested on: DMS 273 small cell lung
MALME-3M melanoma = tested on: MALME-3M melanoma
SNB-19 CNS = tested on: SNB-19 CNS
U251 CNS = tested on: U251 CNS
786-0 renal = tested on: 786-0 renal
TK-10 renal = tested on: TK-10 renal
EKVX NSCLC = tested on: EKVX NSCLC
KM20L2 colon = tested on: KM20L2 colon
SF-295 CNS = tested on: SF-295 CNS
NCI-H226 lung = tested on: NCI-H226 lung
RXF-631 renal = tested on: RXF-631 renal

Compound: CCC12C=CCN3CCC4(C(=C(C(=O)OC)[C@@H]1O)Nc1ccccc14)C32 (some centres not stated)
- TGI (HL-60(TB) leukemia): 4.98 µM
- TGI (M14 melanoma): 5.54 µM
- TGI (KM12 colon): 3.19 µM
- TGI (UACC-257 melanoma): 3.42 µM
- TGI (SK-MEL-5 melanoma): 3.45 µM
- TGI (OVCAR-3 ovarian): 3.89 µM
- TGI (LXFL 529 NSCLC): 3.13 µM
- TGI (HCT-15 colon): 3.09 µM
- TGI (DMS 114 small cell lung): 3.24 µM
- TGI (DLD-1 colon): 3.36 µM
- TGI (CCRF-CEM leukemia): 6 µM
- TGI (OVCAR-4 ovarian): 4.17 µM
- TGI (M19-MEL melanoma): 3.61 µM
- TGI (A498 renal): 5.28 µM
- TGI (NCI-H460 lung): 3.71 µM
- TGI (SK-MEL-2 melanoma): 3.84 µM
- TGI (RXF 393 renal): 2.65 µM
- TGI (SN12C renal): 5.71 µM
- TGI (RPMI-8226 leukemia): 6 µM
- TGI (A549 NSCLC): 5.15 µM
- TGI (HCT-116 colon): 2.95 µM
- TGI (NCI-H23 lung): 3.72 µM
- TGI (UO-31 renal): 6.49 µM
- TGI (HOP-18 NSCLC): 4.87 µM
- TGI (SNB-75 CNS): 5.8 µM
- TGI (K-562 leukemia): > 26.9 µM
- TGI (SNB-78 CNS): 7.35 µM
- TGI (LOX IMVI melanoma): 3.26 µM
- TGI (ACHN renal): 3.3 µM
- TGI (SK-MEL-28 melanoma): 4.13 µM
- TGI (OVCAR-8 ovarian): 5.33 µM
- TGI (SK-OV-3 ovarian): 6.2 µM
- TGI (HOP-92 NSCLC): 4.16 µM
- TGI (SW-620 colon): 3.3 µM
- TGI (NCI-H522 lung): 3.06 µM
- TGI (OVCAR-5 ovarian): 4.67 µM
- TGI (SF-268 CNS): 6.76 µM
- TGI (IGROV1 ovarian): 3.9 µM
- TGI (SR leukemia): 4.58 µM
- TGI (MOLT-4 leukemia): 11.7 µM
- TGI (HCC-2998 colon): 3.06 µM
- TGI (SF-539 CNS): 4.72 µM
- TGI (XF 498 CNS): 3.05 µM
- TGI (CAKI-1 renal): 7.18 µM
- TGI (HT29 colon): 3.76 µM
- TGI (UACC-62 melanoma): 4.76 µM
- TGI (COLO 205 colon): 3.22 µM
- TGI (HOP-62 NSCLC): 4.12 µM
- TGI (DMS 273 small cell lung): 3.37 µM
- TGI (MALME-3M melanoma): 3.43 µM
- TGI (SNB-19 CNS): 3.8 µM
- TGI (U251 CNS): 5.52 µM
- TGI (786-0 renal): 3.07 µM
- TGI (TK-10 renal): 5.37 µM
- TGI (EKVX NSCLC): 3.92 µM
- TGI (KM20L2 colon): 3.54 µM
- TGI (SF-295 CNS): 5.7 µM
- TGI (NCI-H226 lung): 2.71 µM

Compound: C=C1C(=O)C23CC1CCC2C12CO[C@@H]4OCC(C)(CC[C@@H]1OC3=O)C42 (some centres not stated)
- TGI (HL-60(TB) leukemia): 19.5 µM
- TGI (M14 melanoma): 2.88 µM
- TGI (KM12 colon): 17.3 µM
- TGI (UACC-257 melanoma): 10.2 µM
- TGI (SK-MEL-5 melanoma): 28.3 µM
- TGI (OVCAR-3 ovarian): 16.6 µM
- TGI (LXFL 529 NSCLC): 9.39 µM
- TGI (HCT-15 colon): 7.88 µM
- TGI (DMS 114 small cell lung): 4.16 µM
- TGI (CCRF-CEM leukemia): 12.1 µM
- TGI (M19-MEL melanoma): 19.6 µM
- TGI (A498 renal): 34.8 µM
- TGI (NCI-H460 lung): 17.5 µM
- TGI (SK-MEL-2 melanoma): 16.9 µM
- TGI (RXF 393 renal): 6.72 µM
- TGI (SN12C renal): 21.3 µM
- TGI (RPMI-8226 leukemia): 19 µM
- TGI (A549 NSCLC): 25.1 µM
- TGI (HCT-116 colon): 6.33 µM
- TGI (NCI-H23 lung): 16.6 µM
- TGI (UO-31 renal): 23.6 µM
- TGI (HOP-18 NSCLC): 15.5 µM
- TGI (SNB-75 CNS): 30.8 µM
- TGI (K-562 leukemia): > 100 µM
- TGI (SNB-78 CNS): 9.57 µM
- TGI (LOX IMVI melanoma): 3.44 µM
- TGI (ACHN renal): 9.4 µM
- TGI (SK-MEL-28 melanoma): 4.41 µM
- TGI (RXF-631 renal): 47.8 µM
- TGI (OVCAR-8 ovarian): 9.78 µM
- TGI (SK-OV-3 ovarian): 40.1 µM
- TGI (HOP-92 NSCLC): 5.78 µM
- TGI (SW-620 colon): 7.04 µM
- TGI (NCI-H522 lung): 2.33 µM
- TGI (OVCAR-5 ovarian): 29.2 µM
- TGI (SF-268 CNS): 12.7 µM
- TGI (IGROV1 ovarian): 14.1 µM
- TGI (SR leukemia): 26.4 µM
- TGI (MOLT-4 leukemia): 9.7 µM
- TGI (HCC-2998 colon): 30.9 µM
- TGI (SF-539 CNS): 14.8 µM
- TGI (XF 498 CNS): 3.41 µM
- TGI (CAKI-1 renal): 5.33 µM
- TGI (HT29 colon): 10.3 µM
- TGI (UACC-62 melanoma): 17.3 µM
- TGI (COLO 205 colon): 4.34 µM
- TGI (HOP-62 NSCLC): 43.4 µM
- TGI (DMS 273 small cell lung): 19.6 µM
- TGI (MALME-3M melanoma): 4.14 µM
- TGI (SNB-19 CNS): 20.3 µM
- TGI (U251 CNS): 27.4 µM
- TGI (786-0 renal): 5.71 µM
- TGI (TK-10 renal): 13.8 µM
- TGI (EKVX NSCLC): 32.1 µM
- TGI (KM20L2 colon): 17.5 µM
- TGI (SF-295 CNS): 30.9 µM
- TGI (NCI-H226 lung): 38.4 µM

Compound: O=C1C(=O)N(c2ccc(Cl)cc2Cl)C(=O)C(=O)C1c1nc2ccccc2s1
- TGI (HL-60(TB) leukemia): 67.1 µM
- TGI (M14 melanoma): > 100 µM
- TGI (KM12 colon): > 100 µM
- TGI (UACC-257 melanoma): > 100 µM
- TGI (SK-MEL-5 melanoma): > 100 µM
- TGI (OVCAR-3 ovarian): > 100 µM
- TGI (LXFL 529 NSCLC): > 100 µM
- TGI (HCT-15 colon): > 100 µM
- TGI (DMS 114 small cell lung): > 100 µM
- TGI (DLD-1 colon): > 92.2 µM
- TGI (CCRF-CEM leukemia): 88.9 µM
- TGI (OVCAR-4 ovarian): > 100 µM
- TGI (M19-MEL melanoma): > 100 µM
- TGI (A498 renal): > 100 µM
- TGI (NCI-H460 lung): > 100 µM
- TGI (SK-MEL-2 melanoma): > 100 µM
- TGI (RXF 393 renal): > 100 µM
- TGI (SN12C renal): > 100 µM
- TGI (RPMI-8226 leukemia): > 100 µM
- TGI (A549 NSCLC): > 100 µM
- TGI (HCT-116 colon): > 100 µM
- TGI (NCI-H23 lung): > 100 µM
- TGI (UO-31 renal): > 100 µM
- TGI (HOP-18 NSCLC): > 100 µM
- TGI (SNB-75 CNS): 81.8 µM
- TGI (K-562 leukemia): > 100 µM
- TGI (LOX IMVI melanoma): > 100 µM
- TGI (ACHN renal): > 100 µM
- TGI (SK-MEL-28 melanoma): > 100 µM
- TGI (OVCAR-8 ovarian): > 100 µM
- TGI (SK-OV-3 ovarian): > 100 µM
- TGI (HOP-92 NSCLC): > 100 µM
- TGI (SW-620 colon): > 100 µM
- TGI (NCI-H522 lung): > 57.2 µM
- TGI (OVCAR-5 ovarian): > 100 µM
- TGI (SF-268 CNS): > 100 µM
- TGI (IGROV1 ovarian): > 100 µM
- TGI (SR leukemia): 79.2 µM
- TGI (MOLT-4 leukemia): > 89.2 µM
- TGI (HCC-2998 colon): > 100 µM
- TGI (SF-539 CNS): > 100 µM
- TGI (XF 498 CNS): 98.1 µM
- TGI (CAKI-1 renal): > 100 µM
- TGI (HT29 colon): > 100 µM
- TGI (UACC-62 melanoma): > 100 µM
- TGI (COLO 205 colon): > 100 µM
- TGI (HOP-62 NSCLC): > 100 µM
- TGI (DMS 273 small cell lung): > 100 µM
- TGI (MALME-3M melanoma): > 100 µM
- TGI (SNB-19 CNS): > 100 µM
- TGI (U251 CNS): > 100 µM
- TGI (786-0 renal): > 100 µM
- TGI (TK-10 renal): > 100 µM
- TGI (EKVX NSCLC): > 100 µM
- TGI (KM20L2 colon): > 100 µM
- TGI (SF-295 CNS): > 100 µM
- TGI (NCI-H226 lung): > 100 µM
